# Tests used:
# [1] = system: IL-6 secretion by normal human bladder smooth muscle cells; assay: IL-6 ELISA of normal human bladder smooth muscle cell supernatants; assay type: cell-based
# [2] = system: expression of co-stimulatory molecules by Raw 264 macrophage cells; assay: Flow cytometry of co-stimulatory molecules CD40 and CD80 on macrophages treated with analgesic, with or without LPS; assay type: cell-based, Murine
# Method: Murine RAW264.7 or J774 macrophage cells (obtained from ATCC) were used in this study. Cells were maintained in a culture medium containing RPMI 1640 supplemented with 10% fetal bovine serum (FBS), 15 mM HEPES, 2 mM L-glutamine, 100 U/ml penicillin, and 100 μg/ml of streptomycin. Cells were cultured at 37° C. in a 5% CO2 atmosphere and split (passages) once a week.
# RAW264.7 macrophage cells were seeded in 96-well plates at a cell density of 1.5×10^5 cells per well in 100 μl of the culture medium. […] Briefly, the analgesics were dissolved in FBS-free culture medium (i.e., RPMI 1640 supplemented with 15 mM HEPES, 2 mM L-glutamine, 100 U/ml penicillin, and 100 μg/ml of streptomycin), and diluted to desired concentrations by serial dilution with the same medium. For cells treated with analgesic in the absence of LPS, 50 μl of analgesic solution and 50 μl of FBS-free culture medium were added to each well. For cells treated with analgesic in the presence of LPS, 50 μl of analgesic solution and 50 μl of LPS (from Salmonella typhimurium) in FBS-free culture medium were added to each well. All conditions were tested in duplicates.
# After 24 or 48 hours of culture, 150 μl of culture supernatants were collected, spun down for 2 min at 8,000 rpm at 4° C. to remove cells and debris and stored at −70° C. for analysis of cytokine responses by ELISA. The cells were collected and washed by centrifugation (5 min at 1,500 rpm at 4° C.) in 500 μl of Phosphate buffer (PBS). Half of the cells were then snap frozen in liquid nitrogen and stored at −70° C. The remaining cells were stained with fluorescent monoclonal antibodies and analyzed by flow cytometry.
# For flow cytometry analysis, macrophages were diluted in 100 μl of FACS buffer (phosphate buffered saline (PBS) with 2% bovine serum albumin (BSA) and 0.01% NaN3) and stained 30 min at 4° C. by addition of FITC-conjugated anti-CD40, PE-conjugated anti-CD80, PE-conjugated anti-CD86 antibody, anti MHC class II (I-A^d) PE (BD Bioscience). Cells were then washed by centrifugation (5 min at 1,500 rpm at 4° C.) in 300 μl of FACS buffer. After a second wash, cells were re-suspended in 200 μl of FACS buffer and the percentage of cells expressing a given marker (single positive), or a combination of markers (double positive) were analyzed with the aid of an Accuri C6 flow cytometer (BD Biosciences).
# [3] = system: TNFα secretion by normal human bladder smooth muscle cells; assay: TNFα ELISA of normal human bladder smooth muscle cell supernatants; assay type: cell-based
# Method: Culture supernatants were subjected to cytokine-specific ELISA to determine IL-1β, IL-6 and TNF-α responses in cultures of macrophages treated with analgesic, LPS alone or a combination of LPS and analgesic. The assays were performed on Nunc MaxiSorp Immunoplates (Nunc) coated overnight with 100 μl of anti-mouse IL-6, TNF-α mAbs (BD Biosciences) or IL-1β mAb (R&D Systems) in 0.1 M sodium bicarbonate buffer (pH 9.5). After two washes with PBS (200 μl per well), 200 μl of PBS 3% BSA were added in each well (blocking) and the plates incubated for 2 hours at room temperature. Plates were washed again two times by addition of 200 μl per well, 100 μl of cytokine standards and serial dilutions of culture supernatants were added in duplicate and the plates were incubated overnight at 4° C. Finally, the plates were washed twice and incubated with 100 μl of secondary biotinylated anti-mouse IL-6, TNFα mAbs (BD Biosciences) or IL-1β (R&D Systems) followed by peroxidase-labelled goat anti-biotin mAb (Vector Laboratories). The colorimetric reaction was developed by the addition of 2,2′-azino-bis(3)-ethylbenzylthiazoline-6-sulfonic acid (ABTS) substrate and H2O2 (Sigma) and the absorbance measured at 415 nm with a Victor® V multilabel plate reader (PerkinElmer).
# Normal human bladder smooth muscle cells were isolated by enzymatic digestion from macroscopically normal pieces of human bladder. Cells were expended in vitro by culture at 37° C. in a 5% CO2 atmosphere in RPMI 1640 supplemented with 10% fetal bovine serum, 15 mM HEPES, 2 mM L-glutamine, 100 U/ml penicillin, and […] of streptomycin and passage once a week by treatment with trypsin to detach cells followed by reseeding in a new culture flask. The first week of culture, the culture medium was supplemented with 0.5 ng/ml epidermal growth factor, 2 ng/ml fibroblast growth factor, and 5 μg/ml insulin.
# Bladder smooth muscle cells trypsinized and seeded in microculture plates at a cell density of 3×10^4 cells per well in 100 μl were treated with analgesic solutions (50 μl/well) either alone or together carbachol (10-Molar, 50 μl/well), as an example of non-inflammatory stimuli, or lipopolysaccharide (LPS) of Salmonella typhimurium (1 μg/ml, 50 μl/well), as an example of […] stimuli. When no other effectors were added to the cells, 50 μl of RPMI 1640 without fetal bovine serum were added to the wells to adjust the final volume to 200 μl.
# After 24 hours of culture, 150 μl of culture supernatants were collected, spun down for 2 min at 8,000 rpm at 4° C. to remove cells and debris and stored at −70° C. for analysis of Prostaglandin E2 (PGE2) responses by ELISA. Cells were fixed, permeabilized and blocked for detection of COX2 using a fluorogenic substrate. In selected experiment cells were stimulated 12 hours in vitro for analysis of COX2, PGE2 and cytokine responses.
# COX2 and PGE2 responses were analyzed as described in Example 3. Cytokine responses were analyzed as described in Example 2.
# [4] = stimulus alone, no analgesic (Carbachol 10^−3 M; LPS 10 μg/ml), unstimulated <5
compound,measurement,setting,value
COc1ccc2cc([C@H](C)C(=O)O)ccc2c1 [Naproxen],IL-6 (pg/ml) Subject 2,"[1]; LPS (10 μg/ml) plus analgesic 5 μM, LPS alone 4383",2229 pg/mL
same,IL-6 (pg/ml) Subject 1,"[1]; LPS (10 μg/ml) plus analgesic 5 μM, LPS alone 4838, mean of duplicates",2077 pg/mL
same,IL-6 (pg/ml) Subject 2,"[1]; LPS (10 μg/ml) plus analgesic 50 μM, LPS alone 4383",2028 pg/mL
same,IL-6 (pg/ml) Subject 1,"[1]; LPS (10 μg/ml) plus analgesic 50 μM, LPS alone 4838, mean of duplicates",2102 pg/mL
same,effect on expression of the co-stimulatory molecules at the highest dose,[2]; 5 × 10^6 nM,enhance
same,effect on basal expression of co-stimulatory molecules CD40 and CD80 by macrophages,"[2]; 5 × 10^5, 5 × 10^4, 5 × 10^3, 5 × 10^2, 50 and 5 nM",inhibit
same,% Positive CD40+CD80+,"[2]; analgesic alone, 5 nM, negative control 20.6",5.2%
same,% Positive CD40+CD80+,"[2]; analgesic alone, 50 nM, negative control 20.6",6.8%
same,% Positive CD40+CD80+,"[2]; analgesic alone, 500 nM, negative control 20.6",7.2%
same,% Positive CD40+CD80+,"[2]; analgesic alone, 5 × 10^3 nM, negative control 20.6",6.9%
same,% Positive CD40+CD80+,"[2]; analgesic alone, 5 × 10^4 nM, negative control 20.6",7.7%
same,% Positive CD40+CD80+,"[2]; analgesic alone, 5 × 10^5 nM, negative control 20.6",9.6%
same,% Positive CD40+CD80+,"[2]; analgesic alone, 5 × 10^6 nM, negative control 20.6",37%
same,% Positive CD40+CD80+,"[2]; analgesic plus LPS, analgesic 5 nM, LPS 5 ng/ml alone 77.8",73%
same,% Positive CD40+CD80+,"[2]; analgesic plus LPS, analgesic 50 nM, LPS 5 ng/ml alone 77.8",72%
same,% Positive CD40+CD80+,"[2]; analgesic plus LPS, analgesic 500 nM, LPS 5 ng/ml alone 77.8",68.8%
same,% Positive CD40+CD80+,"[2]; analgesic plus LPS, analgesic 5 × 10^3 nM, LPS 5 ng/ml alone 77.8",71.0%
same,% Positive CD40+CD80+,"[2]; analgesic plus LPS, analgesic 5 × 10^4 nM, LPS 5 ng/ml alone 77.8",77.1%
same,% Positive CD40+CD80+,"[2]; analgesic plus LPS, analgesic 5 × 10^5 nM, LPS 5 ng/ml alone 77.8",74.1%
same,% Positive CD40+CD80+,"[2]; analgesic plus LPS, analgesic 5 × 10^6 nM, LPS 5 ng/ml alone 77.8",66.0%
same,TNFα (pg/ml) Subject 2,"[3]; Carbachol 10^−3 M plus analgesic 50 μM, carbachol alone 286, unstimulated <5",137 pg/mL
same,TNFα (pg/ml) Subject 1,"[3]; Carbachol 10^−3 M plus analgesic 50 μM, carbachol alone 350, unstimulated <5, mean of duplicates",129 pg/mL
same,effect on the effect of carbachol and LPS on TNFα responses,[3]; LPS-induced responses: analgesic at either 5 μM or 50 μM,suppress
"C[N+](C)(C)CCOC(N)=O [Carbachol, carbachol]",IL-6 (pg/ml) Subject 1,[1]; [4],232 pg/mL
same,IL-6 (pg/ml) Subject 2,[1]; [4],278 pg/mL
same,TNFα responses to stimulus alone,[3]; no analgesic,"induced low, but significant TNFα and IL-6 responses"
